This is an account of results in US10080365B2, “Use of strobilurin type compounds for combating phytopathogenic fungi resistant to Qo inhibitors” (BASF SE, priority 2011, dated 2018).

For assay [1], the system named is Septoria tritici isolates containing the G143A in the cytochrome b gene. The experiment in a line: Glass house Trial 3: control of leaf blotch on wheat caused by two Septoria tritici isolates containing G143A. It counts as in vivo. Conditions: % diseased leaf area after about 28 days. The protocol: The spray solutions were prepared in several steps:
The stock solution was prepared as follows: 1.26 ml of a 1:1 mixture of cyclohexanone and dimethylsulfoxide was added to 8.4 mg of active ingredient. Next, 40.74 ml of a mixture of water, acetone (10%), the emulsifier Wettol (0.1%) and the wetting agent Silwet (0.05%) was added. This stock solution was then further diluted with the described solvent-emulsifier-water mixture to the desired concentrations.
Trial 3: Control of Leaf Blotch on Wheat Caused by Caused by Two Septoria tritici Isolates Containing the G143A in the Cytochrome b Gene for their Cytochrome Bc1 Complex
Wheat plants were grown in pots. These plants were sprayed to run-off with an aqueous suspension, containing the desired concentration of active ingredient. The next day, the treated plants were inoculated with an aqueous suspension of Septoria tritici. After inoculation, the trial plants were covered with a lid and immediately transferred to a chamber with a relative humidity of about 83 to 85% and 19.5 to 20° C. After 4 days the lid was removed. Altogether, the trial plants were cultivated for about 28 days in that greenhouse chamber. The extent of fungal attack on the leaves was then visually assessed as % diseased leaf area.

For assay [2], the system named is Septoria tritici (Qo-inhibitor-resistant, G143A mutant). As to the kind of experiment: Microtiter test, Septoria tritici Qo-inhibitor-resistant G143A mutant (Use Example 1). It counts as cell-based. Conditions: for pIC50: read-out: Resistant Septoria tritici isolate (G143A mutation) (R-IC50); for Resistance factor RF = R-IC50/S-IC50: ratio of IC50 for G143A resistant isolate to IC50 for wild-type sensitive isolate. On the procedure:
(§1) The active substances were formulated separately as a stock solution in dimethyl sulfoxide (DMSO) at a concentration of 10 000 ppm.
(§2) Activity against the Septoria blotch pathogen caused by Septoria tritici in the microtiter test
(§3) Fungal strains used: • a) Septoria tritici (Qo-inhibitor sensitive, wild-type) • b) Septoria tritici (Qo-inhibitor-resistant, G143A mutant)
(§4) 100 ml 2% Malt extract in water at pH6.8 were inoculated with microspores from 2 week old cultures grown on 2% malt extract+2% agar in Petri dishes and incubated for 3 days on a rotary shaker at 24° C. und 150 rpm. The culture was harvested, glycerol was added (15% (v/v) and kept frozen at −20° C. in aliquots of 1 ml.
(§5) 1 ml stock suspension was thawed and suspended into 800 ml of 2% malt extract in water at pH 6.8. Compounds were diluted from stock solution in (dimethylsulfoxide) DMSO in 10 steps. The compound solutions were diluted 1/5 with sterile deionized water before use. 5 μl of the compound solutions were transferred into empty microplates. The plates were then filled with 195 μl of the microspore suspension of each strain.
(§6) The antifungal activity was determined by measuring the turbidity of a culture in 96-well microplates in the presence of test compounds. Fungal growth was measured by recording the optical density at 620 nm every 15 h for 150 h. The relative antifungal activity was calculated by comparison of the effect of the test compounds with the effect of a DMSO control and a standard fungicide.
(§7) IC50-values (concentration of test compound resulting in 50% inhibition of fungal growth) were calculated from the resulting dose-response for each compound and strain. The initial concentration of the test compounds and the 10 steps of dilution (1:4 each) allowed IC50-values from 0.001 to 100 μmol/l (μM) to be assessed.

Assay [3] concerns Septoria tritici (Qo-inhibitor sensitive, wild-type). The experiment in a line: Microtiter test, Septoria tritici Qo-inhibitor sensitive wild-type (Use Example 1). Conditions: turbidity at 620 nm, read-out: Sensitive Septoria tritici isolate (wild type) (S-IC50). Format: cell-based. On the procedure:
as §1, §2, §3, §4, §5, §6, §7

Where [4] appears, read: microtiter test, Qo-inhibitor-resistant G143A mutant, turbidity at 620 nm.

pIC50: −log10 of the molar value. Like-named read-outs stand apart in the source and are kept apart here. A value given as a limit tells only on which side of the number the result lay.

Consider `CO/C=C(C(=O)OC)\C(C)=C/COc1ccn(-c2ccc(Cl)cc2)n1` [Compound I-7, (Z)-5-[1-(4-Chloro-phenyl)-1H-pyrazol-3-yloxy]-2-[1-methoxy-meth-(E)-yl-idene]-3-methyl-pent-3-enoic acid methyl ester], for which the “Disease level (%)” value in assay [1] (Resistant Septoria tritici isolate 1 (G143A mutation), 12.5 ppm) came to 100%; in assay [1] (Resistant Septoria tritici isolate 1 (G143A mutation), 25 ppm), 80%; in assay [1] (Resistant Septoria tritici isolate 1 (G143A mutation), 50 ppm), 20%; in assay [1] (Resistant Septoria tritici isolate 1 (G143A mutation), 100 ppm) it was 3%; in assay [1] (Resistant Septoria tritici isolate 1 (G143A mutation), 200 ppm), 3%; in assay [1] (Resistant Septoria tritici isolate 2 (G143A mutation), 12.5 ppm), 90%. In addition, the “Disease level (%)” value in assay [1] (Resistant Septoria tritici isolate 2 (G143A mutation), 25 ppm) came out at 15%; in assay [1] (Resistant Septoria tritici isolate 2 (G143A mutation), 50 ppm), 5%; in assay [1] (Resistant Septoria tritici isolate 2 (G143A mutation), 100 ppm), 1%; in assay [1] (Resistant Septoria tritici isolate 2 (G143A mutation), 200 ppm), 0%.

Regarding `Cc1cc(-c2cnco2)c(C)cc1OCc1ccccc1-n1nnn(C)c1=O` [Compound I-267], the figures for the negative logarithm of the IC50 (pIC50) in assay [2] (setting [4]) and in assay [3] were 5.30 and 5.54, respectively. For the same molecule, the “Resistance factor RF = R-IC50/S-IC50” value in assay [2] was found to be 1.7.

For the molecule `Cc1cc(-c2c(C)noc2C)c(C)cc1OCc1ccccc1-n1nnn(C)c1=O` [Compound I-269], the pIC50 (in general, −log10 of the IC50, conventionally taken in molar units) in assay [2] (setting [4]) was 4.13; in assay [3], 5.10. Moreover, the “Resistance factor RF = R-IC50/S-IC50” value in assay [2] came out at 10.

Take `Cc1ncc(-c2cc(C)c(OCc3ccccc3-n3nnn(C)c3=O)cc2C)o1` [Compound I-270]: the pIC50 was 4.24 in assay [2] (setting [4]) and 5.22 in assay [3]. For the same molecule, in assay [2], the “Resistance factor RF = R-IC50/S-IC50” value came out at 10.

As to `Cc1cc(-c2cnoc2)c(C)cc1OCc1ccccc1-n1nnn(C)c1=O` [Compound I-271], the values for the pIC50 in assay [2] (setting [4]) and in assay [3] were 5.15 and 5.72, respectively. In addition, the “Resistance factor RF = R-IC50/S-IC50” value in assay [2] amounted to 3.9.

Regarding `Cc1c(OCc2ccccc2-n2nnn(C)c2=O)nn2c(C3CC3)cc(C3CC3)nc12` [Compound I-273], the pIC50 in assay [2] (setting [4]) is 4.66; in assay [3], 5.30. Moreover, the “Resistance factor RF = R-IC50/S-IC50” value in assay [2] turned out to be 4.

Consider `CC(=NOCc1ccccc1-n1nnn(C)c1=O)C(=O)c1ccc(C)c(C)c1` [Compound I-274], for which the pIC50 was 4.72 in assay [2] (setting [4]) and 5.05 in assay [3]. Besides, the “Resistance factor RF = R-IC50/S-IC50” value in assay [2] was determined as 2.0.

`CCC(=CCOc1ccn(-c2ccc(Cl)cc2)n1)C(=NOC)C(=O)NC` [Compound I-287]: the figures for the pIC50 in assay [2] (setting [4]) and in assay [3] were 4.74 and 5.82, respectively. The “Resistance factor RF = R-IC50/S-IC50” value in assay [2] is 12.

On to `CNC(=O)C(=NOC)C(C)=CCOc1ncn(-c2ccc(Cl)cc2)n1` [Compound I-288], for which the pIC50 was 4.55 in assay [2] (setting [4]) and 5.46 in assay [3]. In addition, the “Resistance factor RF = R-IC50/S-IC50” value in assay [2] is 8.0.

Regarding `CON=C(C(=O)OC)C(C)=CCOc1ncn(-c2ccc(Cl)c(Cl)c2)n1` [Compound I-291], the values for the negative logarithm of the IC50 (pIC50) in assay [2] (setting [4]) and in assay [3] were 4.74 and 6.00, respectively. Also, the “Resistance factor RF = R-IC50/S-IC50” value in assay [2] is on record as 18.0.

As for `CON=C(C(=O)OC)C(C)=CCOc1ncn(-c2ccc(Br)cc2)n1` [Compound I-292], the negative-log IC50 (pIC50) in assay [2] (setting [4]) is 4.48; in assay [3], 5.10. For the same molecule, in assay [2], the “Resistance factor RF = R-IC50/S-IC50” value was found to be 4.2.

Take `CON=C(C(=O)OC)C(C)=CCOc1ncn(-c2cc(C(F)(F)F)ccc2Cl)n1` [Compound I-298]: the figures for the pIC50 in assay [2] (setting [4]) and in assay [3] were 4.51 and 5.44, respectively. Besides, the “Resistance factor RF = R-IC50/S-IC50” value in assay [2] was 8.6.

On to `CON=C(C(=O)OC)C(C)=CCOc1ncn(-c2ccc(Cl)cc2Cl)n1` [Compound I-303], for which the negative-log IC50 (pIC50) in assay [2] (setting [4]) was 5.34; in assay [3], 6.57. Besides, the “Resistance factor RF = R-IC50/S-IC50” value in assay [2] was 17.0.

In the case of `CCc1ccc(-n2cnc(OCC=C(C)C(=NOC)C(=O)OC)n2)cc1` [Compound I-304], the results for the negative logarithm of the IC50 (pIC50) in assay [2] (setting [4]) and in assay [3] were 5.04 and 6.28, respectively. The “Resistance factor RF = R-IC50/S-IC50” value in assay [2] was 17.2.

Regarding `CNC(=O)C(=NOC)C(C)=CCOc1ncn(-c2ccc(Cl)cc2Cl)n1` [Compound I-305], the negative logarithm of the IC50 (pIC50) in assay [2] (setting [4]) is 4.49; in assay [3] it was 5.03. For the same molecule, the “Resistance factor RF = R-IC50/S-IC50” value in assay [2] is listed as 3.4.

For `CON=C(C(=O)OC)C(C)=CCOc1ccn(-c2cc(Cl)ccc2C)n1` [Compound I-307], the results for the pIC50 in assay [2] (setting [4]) and in assay [3] were 4.17 and 4.72, respectively. The “Resistance factor RF = R-IC50/S-IC50” value in assay [2] is recorded as 3.5.

Turning to `CON=C(C(=O)OC)C(C)=CCOc1ncn(-c2ccc(C)c(Cl)c2)n1` [Compound I-310], the pIC50 is 4.96 in assay [2] (setting [4]) and 6.41 in assay [3]. Further, in assay [2], the “Resistance factor RF = R-IC50/S-IC50” value is on record as 28.2.

Regarding `CON=C(C(=O)OC)C(C)=CCOc1ncn(-c2ccccc2C)n1` [Compound I-319], the “Resistance factor RF = R-IC50/S-IC50” value in assay [2] was 6.0. The pIC50 in assay [3] was 4.77.

Turning to `CON=C(C(=O)OC)C(C)=CCOc1ncn(-c2cc(C)ccc2C)n1` [Compound I-324], the negative-log IC50 (pIC50) was 4.42 in assay [2] (setting [4]) and 5.72 in assay [3]. Besides, the “Resistance factor RF = R-IC50/S-IC50” value in assay [2] is listed as 20.0.

In the case of `CON=C(C(=O)OC)C(C)=CCOc1ncn(-c2ccc(C(F)(F)F)cc2Cl)n1` [Compound I-326], the results for the negative logarithm of the IC50 (pIC50) in assay [2] (setting [4]) and in assay [3] were 4.74 and 5.92, respectively. Besides, the “Resistance factor RF = R-IC50/S-IC50” value in assay [2] is 15.0.

Turning to `CON=C(C(=O)OC)C(C)=CCOc1ncn(-c2cc(Cl)cc(Cl)c2)n1` [Compound I-331], the pIC50 was 4.60 in assay [2] (setting [4]) and 5.74 in assay [3]. In assay [2], the “Resistance factor RF = R-IC50/S-IC50” value is on record as 13.9.

On to `CNC(=O)/C(=N/OC)c1ccccc1COc1cc(C)ccc1C` [Dimoxystrobin, reference compound], for which the negative-log IC50 (pIC50) was less than 4.00 in assay [2] (setting [4]) and 5.15 in assay [3].

For the molecule `CO/C=C(/C(=O)OC)c1ccccc1CO/N=C(C)/C=C/c1ccc(Cl)cc1` [Enestroburin, reference compound], the negative logarithm of the IC50 (pIC50) in assay [2] (setting [4]) is less than 4.00; in assay [3], 5.35.

For the molecule `CO/N=C(/C(=O)OC)c1ccccc1COc1ccccc1C` [Kresoximmethyl], the negative logarithm of the IC50 (pIC50) in assay [2] (Zymoseptoria tritici) was less than 4.00; in assay [3] (Zymoseptoria tritici) it was 6.12.

With `CNC(=O)/C(=N/OC)c1ccccc1Oc1ccccc1` [Metominostrobin, reference compound], the pIC50 in assay [2] (Zymoseptoria tritici) and in assay [3] (Zymoseptoria tritici) was less than 4.00 each time.

Take `CNC(=O)/C(=N/OC)c1ccccc1CO/N=C(C)/C(=N/OC)C(/C)=N/OC` [Orysastrobin, reference compound]: the pIC50 in assay [2] (setting [4]) was less than 4.00; in assay [3], 4.57.

For `CO/C=C(/C(=O)OC)c1ccccc1COc1cccc(C(F)(F)F)n1` [Picoxystrobin, reference compound], the pIC50 in assay [2] (setting [4]) was less than 4.00; in assay [3] it was 5.64.

As to `COC(=O)N(OC)c1ccccc1COc1c(C)c(-c2ccccc2)nn1C` [Pyrametostrobin, reference compound], the pIC50 in assay [2] (setting [4]) and in assay [3] was less than 4.00 in each case.

As for `CO/C=C(/C(=O)OC)c1ccccc1COc1cc(-c2ccc(Cl)cc2)nn1C` [Pyraoxystrobin, reference compound], the values for the pIC50 in assay [2] (setting [4]) and in assay [3] were less than 4.00 and 5.80, respectively.
